Source: patent US9119877B2, “Therapeutic combination comprising a Cdc7 inhibitor and an anti-neoplastic agent” (NERVIANO MEDICAL SCIENCES S.R.L., priority 2010, dated 2015)
Where two headings read alike, the source gives them in different places. Each block holds one compound with its values, some of them ahead of it.

Experiments:
[1] = system: MX-1 human breast carcinoma; experiment: tumor growth delay, MX-1 xenograft, combination with docetaxel; type: in vivo; conditions: MX-1 in CD1 Nu/Nu female mice, time to reach 1 g
Experimental: (§1) CD1 Nu/Nu female mice were obtained from Charles River, Italy, The animals were maintained in cages using steam autoclaved (sterile) bedding, sterilized diet and water were offered ad libitum. MX-1 human breast carcinoma (from American Type Culture Collection) was maintained by subcutaneous (SC) transplantation in athymic mice. Viable MX-1 tumor fragments (weighting 20-30 mg) were obtained aseptically from stock tumors and transplanted subcutaneously by trocar implantation into the left flank of athymic nude mice. Animals were examined regularly for the appearance of tumors.
(§2) Docetaxel was administered by intravenous route at the dose of 5 mg/kg on days 1, 8, 15. […] Tumor growth and body weight were measured every 3 days, Tumor growth was assessed by caliper. The two diameters were recorded and the tumor weight was calculated according to the following formula: length (mm)×width^2/2. The effect of the antitumor treatment was evaluated as the delay in the onset of an exponential growth of the tumor (see for references Anticancer drugs 7:437-60, 1996). This delay (T-C value) was defined as the difference of time (in days) required for the treatment group (T) and the control group (C) tumors to reach a predetermined size (1 g). Toxicity was evaluated on the basis of body weight reduction.

[2] = female, CD1 Nu/Nu, mouse, in vivo
Experimental: as §1, §2

[3] = toxicity on the basis of body weight reduction, HCT-116 study with irinotecan; type: in vivo
Experimental: (§3) Balb, Nu/Nu male mice, from Harlan (Italy), were maintained in agreement with the European Communities Council Directive no. 86/609/EEC, in cages with paper filter cover, food and bedding sterilized and acidified water. Fragments of HCT-116 human colon cancer tumors were implanted subcutaneously. The treatment started when tumors were palpable. […] Irinotecan was administered by intravenous route at the dose of 45 mg/kg on days 1, 5, 9. […] Tumor growth was assessed by caliper.

[4] = system: HCT-116 human colon cancer tumors; experiment: tumor growth delay, HCT-116 xenograft, combination with irinotecan; type: in vivo; conditions: HCT-116 in Balb Nu/Nu male mice, time to reach 1 g
Experimental: as §3

[5] = system: HCT116 human colon carcinoma cell line; experiment: cell proliferation (CellTiterGlo), single agents and combinations, HCT116; type: cell-based
Experimental: (§4) Materials and methods. […] Drugs were added to the experimental culture, and incubations were carried out at 37° C. for 72 hours in the dark. […] Drug solutions were prepared immediately before use. At the end of treatment, cell proliferation was determined by an intracellular adenosine triphosphate monitoring system (CellTiterGlo-Promega) using an Envision (PerkinElmer) reader. Inhibitory activity was evaluated comparing treated versus control data using the Assay Explorer (MDL) program. The dose inhibiting 50% of cell growth was calculated using sigmoidal interpolation curve.

[6] = system: Mcf-7 human breast adenocarcinoma cell line; experiment: cell proliferation (CellTiterGlo), single agents and combinations, Mcf-7; type: cell-based
Experimental: as §4

[7] = system: MX-1 human breast carcinoma; experiment: tumor growth delay, MX-1 xenograft, combination with bevacizumab; type: in vivo; conditions: MX-1 in CD-1 Nu/Nu female mice, time to reach 1 g
Experimental: (§5) Animals were examined regularly for the appearance of tumors. The treatment started when tumors were palpable. Compound of formula (I) was administered by oral route in a volume of 10 ml/kg at the daily dose of 20 mg/kg on days 2, 4, 6, 8, 10 and 12. Bevacizumab was administered by intravenous route at the dose of 20 mg/kg on days 1, 5, 9 and 13. When combined, compound of formula (I) was administered on days 2, 4, 6, 8, 10 and 12 and bevacizumab on days 1, 5, 9 and 13. […] Tumor growth was assessed by caliper.

[8] = system: L-363 human Multiple Myeloma cell line; experiment: cell proliferation (CellTiterGlo), single agents and combinations, L-363; type: cell-based
Experimental: (§6) Materials and methods. Exponentially growing human breast cancer (Mcf-7), human ovarian cancer (A-2780), human multiple myeloma (L-363), human colorectal cancer (HCT-116) and human melanoma (A-375) cell lines were seeded and incubated at 37° C. in a humidified 5% CO2 atmosphere. Drugs were added to the experimental culture, and incubations were carried out at 37° C. for 72 hours in the dark. Scalar doses of the compound of formula (I) and antineoplastic agents were added to the medium starting from 24 hours after seeding. Drug solutions were prepared immediately before use. At the end of treatment, cell proliferation was determined by an intracellular adenosine triphosphate monitoring system (CellTiterGlo-Promega) using an Envision (PerkinElmer) reader. Inhibitory activity was evaluated comparing treated versus control data using the Assay Explorer (MDL) program. The dose inhibiting 50% of cell growth was calculated using sigmoidal interpolation curve. Combination indices (C.I.) were calculated using a proprietary computer program for multiple drug effect analysis based on the equation of Chou-Talalay (Adv Enzyme Regul 1984;22:27-55) for mutually nonexclusive drugs, where a C.I. of <1 indicates a more than additive effect: C.I.: >3 strong antagonism; 1.3-3 antagonism; 1.2-0.8 additivity; 0.8-0.3 synergism; <0.3 strong synergism.

[9] = system: A2780 human ovarian carcinoma cell line; experiment: cell proliferation (CellTiterGlo), single agents and combinations, A2780; type: cell-based; conditions: single agent, 72 hours
Experimental: as §6

[10] = system: A375 human melanoma cell line; experiment: cell proliferation (CellTiterGlo), single agents and combinations, A375; type: cell-based; conditions: A-375, 72 h
Experimental: as §4

[11] = toxicity on the basis of body weight reduction, MX-1 study with bevacizumab; type: in vivo
Experimental: as §5

[12] = 20 mg/kg oral on days 2, 4, 6, 8, 10, 12

Compound: CC(=O)O[C@@]12CO[C@@H]1C[C@H](O)[C@@]1(C)C(=O)[C@H](O)C3=C(C)[C@@H](OC(=O)[C@H](O)[C@@H](NC(=O)OC(C)(C)C)c4ccccc4)C[C@@](O)([C@@H](OC(=O)c4ccccc4)[C@H]21)C3(C)C [docetaxel]
- T-C ([1]; 5 mg/kg intravenous on days 1, 8, 15): 9 days
- Toxicity ([2]; iv, 5 mg/kg): 0/7

Compound: CCc1c2c(nc3ccc(OC(=O)N4CCC(N5CCCCC5)CC4)cc13)-c1cc3c(c(=O)n1C2)COC(=O)[C@]3(O)CC [irinotecan]
- Toxicity ([3]; HCT-116 study, 45 mg/kg intravenous on days 1, 5, 9, body weight reduction): 0/7
- T-C ([4]; 45 mg/kg intravenous on days 1, 5, 9): 18 days

Compound: NC(=O)c1cc(-c2ccnc(N)n2)[nH]c1-c1ccc(Cl)cc1Cl [Compound of formula (I), 5-(2-Amino-pyrimidin-4-yl)-2-(2,4-dichloro-phenyl)-1H-pyrrole-3-carboxylic acid amide]
- IC50 ([5]; HCT-116, 72 h, read-out: IC50 (μM) Compound of formula (I)): 0.8 µM
- T-C [7, 12]: 13 days
- IC50 ([8]; L-363, 72 h, read-out: IC50 (μM) Compound of formula (I)): 0.38 µM
- IC50 ([9]; Homo sapiens, Table 3 (cisplatin experiment), read-out: IC50 (μM) Compound of formula (I)): 0.52 µM
- IC50 ([10]; read-out: IC50 (μM) Compound of formula (I), A375, single agent, Table 11 (dacarbazine, sequential experiment)): 1.21 µM
- IC50 ([10]; read-out: IC50 (μM) Compound of formula (I), A375, single agent, Table 12 (dacarbazine, simultaneous experiment)): 0.86 µM
- T-C ([1]; 20 mg/kg oral on days 2, 4, 6, 9, 11, 13): 10 days
- IC50 ([6]; Homo sapiens, MCF7, 72 h, read-out: IC50 (μM) Compound of formula (I), Mcf-7, single agent, Table 1 (gemcitabine experiment)): 1.1 µM
- IC50 ([6]; Homo sapiens, MCF7, 72 h, read-out: IC50 (μM) Compound of formula (I), Mcf-7, single agent, Table 2 (cisplatin experiment)): 1.7 µM
- IC50 ([6]; Homo sapiens, MCF7, 72 h, read-out: IC50 (μM) Compound of formula (I), Mcf-7, single agent, Table 4 (SN-38 experiment)): 0.77 µM
- IC50 ([6]; Homo sapiens, MCF7, 72 h, read-out: IC50 (μM) Compound of formula (I), Mcf-7, single agent, Table 5 (etoposide experiment)): 1.11 µM
- IC50 ([6]; Homo sapiens, MCF7, 72 h, read-out: IC50 (μM) Compound of formula (I), Mcf-7, single agent, Table 6 (paclitaxel experiment)): 0.67 µM
- IC50 ([6]; Homo sapiens, MCF7, 72 h, read-out: IC50 (μM) Compound of formula (I), Mcf-7, single agent, Table 7 (erlotinib experiment)): 1.87 µM
- IC50 ([6]; Homo sapiens, MCF7, 72 h, read-out: IC50 (μM) Compound of formula (I), Mcf-7, single agent, Table 8 (bortezomib experiment)): 0.767 µM
- Toxicity ([3]; male, Balb Nu/Nu, mouse, in vivo, po, 20 mg/kg): 0/7
- T-C [4, 12]: 4 days
- Toxicity ([11]; female, CD-1 Nu/Nu, mouse, in vivo, po, 20 mg/kg): 0/7
- Toxicity ([2]; po, 20 mg/kg): 0/7

Compound: Nc1ccn([C@@H]2O[C@H](CO)[C@@H](O)C2(F)F)c(=O)n1 [Gemcitabine, gemcitabine]
- IC50 ([6]; Homo sapiens, MCF7, Mcf-7, single agent, 72 hours, Table 1, read-out: IC50 (μM) Gemcitabine): 0.79 µM

Compound: bevacizumab
- T-C ([7]; 20 mg/kg intravenous on days 1, 5, 9, 13): 13 days
- Toxicity ([11]; MX-1 study, 20 mg/kg intravenous on days 1, 5, 9, 13, body weight reduction): 0/7

Compound: CC1(C)CCC(c2ccc(Cl)cc2)=C(CN2CCN(c3ccc(C(=O)NS(=O)(=O)c4ccc(N[C@H](CCN5CCOCC5)CSc5ccccc5)c(S(=O)(=O)C(F)(F)F)c4)cc3)CC2)C1 [ABT-263, Navitoclax]
- IC50 ([8]; L-363, single agent, 72 hours, Table 10, read-out: IC50 (μM) ABT-263): 7.3 µM

Compound: N.N.[Cl][Pt][Cl] [cisplatin]
- IC50 ([9]; Table 3, read-out: IC50 (μM) cisplatin): 3 µM
- IC50 ([6]; Mcf-7, single agent, 72 hours, Table 2, read-out: IC50 (μM) cisplatin): 10.2 µM

Compound: CCc1c2c(nc3ccc(O)cc13)-c1cc3c(c(=O)n1C2)COC(=O)[C@]3(O)CC [SN38, SN-38]
- IC50 ([6]; Mcf-7, single agent, 72 hours, Table 4, read-out: IC50 (μM) SN38): 0.024 µM

Results, then the compound that gave them:

- IC50 ([5]; HCT-116, HCT116, single agent, 72 hours, Table 9, read-out: IC50 (μM) bortezomib): 0.009 µM
- IC50 ([6]; Homo sapiens, MCF7, Mcf-7, single agent, 72 hours, Table 8, read-out: IC50 (μM) bortezomib): 0.011 µM
Compound: CC(C)C[C@H](NC(=O)[C@H](Cc1ccccc1)NC(=O)c1cnccn1)B(O)O [bortezomib]

- IC50 ([6]; Homo sapiens, MCF7, Mcf-7, single agent, 72 hours, Table 6, read-out: IC50 (μM) paclitaxel): 0.008 µM
Compound: CC(=O)O[C@H]1C(=O)[C@@]2(C)[C@H]([C@H](OC(=O)c3ccccc3)[C@]3(O)C[C@H](OC(=O)[C@H](O)[C@@H](NC(=O)c4ccccc4)c4ccccc4)C(C)=C1C3(C)C)[C@]1(OC(C)=O)CO[C@@H]1C[C@@H]2O [paclitaxel]

- IC50 ([10]; A375, single agent, Table 11 (sequential experiment), read-out: IC50 (μM) dacarbazine): 37 µM
- IC50 ([10]; A375, single agent, Table 12 (simultaneous experiment), read-out: IC50 (μM) dacarbazine): 83 µM
Compound: CN(C)/N=N/c1[nH]cnc1C(N)=O [dacarbazine]

- IC50 ([6]; Homo sapiens, MCF7, Mcf-7, single agent, 72 hours, Table 7, read-out: IC50 (μM) erlotinib): 74.8 µM
Compound: C#Cc1cccc(Nc2ncnc3cc(OCCOC)c(OCCOC)cc23)c1 [erlotinib]

- IC50 ([6]; Homo sapiens, MCF7, Mcf-7, single agent, 72 hours, Table 5, read-out: IC50 (μM) etoposide): 12.7 µM
Compound: COc1cc([C@@H]2c3cc4c(cc3[C@@H](O[C@@H]3O[C@@H]5CO[C@@H](C)O[C@H]5[C@H](O)[C@H]3O)[C@H]3COC(=O)[C@H]23)OCO4)cc(OC)c1O [etoposide]
